Key:
[1] = system: 17β-hydroxysteroid dehydrogenase from human placenta; assay: stability against 17β-hydroxysteroid dehydrogenase, incubation with placenta microsomes; assay type: in vitro ADME; settings: NADP 0.5 mmol
Method: To determine the stability of estradiol (A) itself as well as of a compound according to the invention, i.e., 15,15-dimethyl-estra-1,3,5(10)-triene-3,17β-diol (B), against 17β-hydroxysteroid dehydrogenase from human placenta, the test substances are incubated with placenta microsomes in the presence of NADP (nicotinamide-adenine-dinucleotide phosphate; 0.5 mmol).
The steroids (initial substrate and product) are extracted and separated by HPLC. For evaluation, the quotients are formed from the electronically integrated peak areas of the corresponding reaction product (namely the assumed 17-keto compound) and the initial substance and plotted against the incubation time (FIG. 1).

[2] = system: estrogen receptor; assay: estrogen receptor binding test; settings: tissue from rat uteri, 3H-estradiol as reference substance
Method: The estrogenic effectiveness of the compounds according to the invention can be shown by the results of the estrogen receptor binding test. In this known in vitro test, tissue from rat uteri is prepared and radioactively-labeled ^3 H-estradiol is used as reference substance. The compound according to the invention 15,15-dimethyl-estra-1,3,5(10)-triene-3,17β-diol accordingly has a competition factor K of 1.5.

`CC1(C)C[C@H](O)[C@@]2(C)CC[C@@H]3c4ccc(O)cc4CC[C@H]3[C@H]12` [15,15-dimethylestra-1,3,5(10)-triene-3,17β-diol] was tested, and the “conversion to the 17-keto compound by 17β-hydroxysteroid dehydrogenase (quotient of HPLC peak areas product/initial substance against incubation time, FIG. 1)” value [1] was “only moderate substrate” and the “competition factor K” value [2] was 1.5.

Source: patent US5656622A, “15,15-dialkyl-substituted derivatives of estradiol” (Schering Aktiengesellschaft, priority 1993, dated 1997)
